Test results published in ChEMBL document CHEMBL1165994, “Leucoridines A-D, cytotoxic Strychnos-Strychnos bisindole alkaloids from Leuconotis” (J Nat Prod, 2010).
≈ marks a conversion by molar mass, not a printed value.

How the values were obtained:
KB = assay: Cytotoxicity against human KB cells after 3 days by MTT assay; assay type: functional, cell-based; conditions: 72 h
[1] = Cytotoxicity against human KB/VJ300 cells after 3 days by MTT assay; assay type: functional, cell-based; conditions: KB/VJ300, 72 h

Row | Compound | IC50 (KB) | IC50 [1]
1 | CC[C@@H]1CN2CC[C@@]34C5=C(C[C@]6(CN5c5ccccc53)C3=Nc5ccccc5[C@@]35CCN3C[C@@H](CC)[C@@H]6C[C@H]35)[C@H]1C[C@H]24 [LEUCORIDINE A] | 0.57 µg/mL (≈ 1.02 µM) | 2.39 µg/mL (≈ 4.29 µM)
2 | CCC1=CN2CC[C@@]34C(=Nc5ccccc53)[C@@]3(CC5=C6N(C3)c3ccccc3[C@@]63CCN6C[C@@H](CC)[C@@H]5C[C@H]63)[C@H]1C[C@H]24 [LEUCORIDINE B] | 11.6 µg/mL (≈ 20.9 µM) | 12 µg/mL (≈ 21.7 µM)
3 | CC[C@@H]1CN2CC[C@@]34C5=C(C[C@]6(CN5c5ccccc53)C(=O)[C@@]3(c5ccccc5N)CCN5C[C@@H](CC)[C@@H]6C[C@H]53)[C@H]1C[C@H]24 [LEUCORIDINE C] | 10.9 µg/mL (≈ 19 µM) | 11.8 µg/mL (≈ 20.5 µM)
4 | C=C1[C@H]2C[C@@H]3N(CC[C@@]34c3cccc(C[C@@H]5C6=Nc7ccccc7[C@@]67CCN6C[C@@H](CC)[C@@H]5C[C@H]67)c3N[C@@H]14)C[C@H]2CC [LEUCORIDINE D] | 12.5 µg/mL (≈ 22.4 µM) | 13.3 µg/mL (≈ 23.8 µM)
